Results published in US10385022B2, “3-amino-pyridines as GPBAR1 agonists” (HOFFMANN-LA ROCHE INC., priority 2011, dated 2019).

The molecules below were run against human GPBAR1 receptor (Homo sapiens (Human), UniProt Q8TDU6) (assay: functional cAMP assay in CHO-dhfr(minus) cells expressing human GPBAR1 receptors). Conditions: CHO-dhfr(minus) cells expressing human GPBAR1, 30 min at 30° C.
Type: cell-based
Description: The final clone was verified by DNA sequence analysis. The plasmid was transfected into CHO cells deficient in dihydrofolate reductase activity (CHO-dhfr-) using Lipofectamine plus (Invitrogen). Clones were isolated in limited dilution conditions and identified by activities in the cAMP assay using lithocholic acid as agonist.
EC50 values were determined using Activity Base analysis (ID Business Solution, Limited). […] Specificity for GPBAR1 was tested in non-transfected CHO cells in the same assay as above.

Chain of human GPBAR1 receptor (Q8TDU6 whole entry): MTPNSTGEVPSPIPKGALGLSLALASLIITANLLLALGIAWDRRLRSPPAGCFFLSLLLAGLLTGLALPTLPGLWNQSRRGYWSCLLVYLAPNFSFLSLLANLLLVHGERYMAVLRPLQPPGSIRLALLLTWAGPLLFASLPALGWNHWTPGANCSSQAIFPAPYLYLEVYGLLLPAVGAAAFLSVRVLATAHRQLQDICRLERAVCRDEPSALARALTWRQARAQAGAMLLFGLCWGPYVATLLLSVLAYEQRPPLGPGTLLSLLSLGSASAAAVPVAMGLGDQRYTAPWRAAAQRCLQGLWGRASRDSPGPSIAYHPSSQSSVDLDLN

Row | SMILES | EC50 [µM]
1 | COCCOc1cc(C(=O)N(C)c2cnccc2-c2ccc(F)cc2OC)cc(C(F)(F)F)c1 [Example 236, N-[4-(4-Fluoro-2-methoxy-phenyl)-pyridin-3-yl]-3-(2-methoxy-ethoxy)-N-methyl-5-trifluoromethyl-benzamide] | 0.886
2 | COc1cc(F)ccc1-c1ccncc1N(C)C(=O)c1cc(C(F)(F)F)cc(S(=O)(=O)CCNS(N)(=O)=O)c1 [Example 269, N-[4-(4-fluoro-2-methoxyphenyl)pyridin-3-yl]-N-methyl-3-{[2-(sulfamoylamino)ethyl]-sulfonyl}-5-(trifluoromethyl)benzamide] | 0.094
3 | COc1ccc(F)cc1-c1ccncc1N(CC(N)=O)C(=O)c1cc(C(F)(F)F)cc(S(C)(=O)=O)c1 [Example 309, N-Carbamoylmethyl-N-[4-(5-fluoro-2-methoxy-phenyl)-pyridin-3-yl]-3-methanesulfonyl-5-trifluoromethyl-benzamide] | 0.273
4 | Cc1nn(C)c(C)c1-c1ccncc1N(C)C(=O)c1cc(C(F)(F)F)cc(C(F)(F)F)c1 [Example 208, N-Methyl-3,5-bis-trifluoromethyl-N-[4-(1,3,5-trimethyl-1H-pyrazol-4-yl)-pyridin-3-yl]-benzamide] | 2.96
5 | COc1cc(F)ccc1-c1ccncc1N(CC1CCOC1)C(=O)c1cc(C(F)(F)F)cc(S(C)(=O)=O)c1 (stereo not shown) [Example 273, N-[4-(4-Fluoro-2-methoxy-phenyl)-pyridin-3-yl]-3-methanesulfonyl-N-(tetrahydro-furan-3-ylmethyl)-5-trifluoromethyl-benzamide] | 1.5
6 | COC(=O)CN(C(=O)c1cc(C(F)(F)F)cc(S(C)(=O)=O)c1)c1cnccc1-c1ccccc1Cl [Example 289, [[4-(2-Chloro-phenyl)-pyridin-3-yl]-(3-methanesulfonyl-5-trifluoromethyl-benzoyl)-amino]-acetic acid methyl ester] | 0.275
7 | COC(=O)COc1cc(F)ccc1-c1ccncc1N(C)C(=O)c1cc(C(F)(F)F)cc(C(F)(F)F)c1 [Example 49, (2-{3-[(3,5-Bis-trifluoromethyl-benzoyl)-methyl-amino]-pyridin-4-yl}-5-fluoro-phenoxy)-acetic acid methyl ester] | 0.629
8 | COc1cc(F)ccc1-c1cc(C)ncc1N(C)C(=O)c1cc(C(F)(F)F)cc(S(=O)(=O)N2CCOCC2)c1 [Example 302, N-[4-(4-Fluoro-2-methoxy-phenyl)-6-methyl-pyridin-3-yl]-N-methyl-3-(morpholine-4-sulfonyl)-5-trifluoromethyl-benzamide] | > 10
9 | COc1cc(F)ccc1-c1ccncc1N(C)C(=O)c1cc(OCCO)cc(C(F)(F)F)c1 [Example 240, N-[4-(4-Fluoro-2-methoxy-phenyl)-pyridin-3-yl]-3-(2-hydroxy-ethoxy)-N-methyl-5-trifluoromethyl-benzamide] | 1.15
10 | CN(C(=O)c1cc(C(F)(F)F)cc(C(F)(F)F)c1)c1cnccc1-c1c(F)cccc1F [Example 64, N-[4-(2,6-Difluoro-phenyl)-pyridin-3-yl]-N-methyl-3,5-bis-trifluoromethyl-benzamide] | 0.014
11 | COc1cc(F)ccc1-c1ccncc1N(C)C(=O)c1cc(SCCCCC(=O)O)cc(C(F)(F)F)c1 [Example 243, 5-(3-{[4-(4-Fluoro-2-methoxy-phenyl)-pyridin-3-yl]-methyl-carbamoyl}-5-trifluoromethyl-phenylsulfanyl)-pentanoic acid] | 0.61
12 | COc1cc(F)ccc1-c1ccncc1N(C)C(=O)c1cc(OC(F)(F)F)cc(S(C)(=O)=O)c1 [Example 252, N-[4-(4-Fluoro-2-methoxy-phenyl)-pyridin-3-yl]-3-methanesulfonyl-N-methyl-5-trifluoromethoxy-benzamide] | 0.17
13 | COc1cccc(F)c1-c1ccncc1N(C)C(=O)c1cc(C(F)(F)F)cc(S(C)(=O)=O)c1 [Example 205, N-[4-(2-Fluoro-6-methoxy-phenyl)-pyridin-3-yl]-3-methanesulfonyl-N-methyl-5-trifluoromethyl-benzamide] | 0.017
14 | COc1cc(F)c(F)cc1-c1ccncc1N(CCS(C)(=O)=O)C(=O)c1cc(C(F)(F)F)nc(C(F)(F)F)c1 [Example 158, N-[4-(4,5-Difluoro-2-methoxy-phenyl)-pyridin-3-yl]-N-(2-methanesulfonyl-ethyl)-2,6-bis-trifluoromethyl-isonicotinamide] | 0.21
15 | COC(=O)CN(C(=O)c1cc(C(F)(F)F)nc(C(F)(F)F)c1)c1cnccc1-c1ccccc1F [Example 196, Methyl 2-(N-(4-(2-fluorophenyl)pyridin-3-yl)-2,6-bis(trifluoromethyl)isonicotinamido)acetate] | 0.023
16 | Cc1cn[nH]c1-c1ccncc1N(C)C(=O)c1cc(C(F)(F)F)cc(C(F)(F)F)c1 [Example 211, N-Methyl-N-[4-(4-methyl-2H-pyrazol-3-yl)-pyridin-3-yl]-3,5-bis-trifluoromethyl-benzamide] | 0.959
17 | COc1cc(F)c(F)cc1-c1ccncc1N(CC(N)=O)C(=O)c1cc(C(F)(F)F)nc(C(F)(F)F)c1 [Example 174, N-(2-Amino-2-oxoethyl)-N-(4-(4,5-difluoro-2-methoxyphenyl)pyridin-3-yl)-2,6-bis(trifluoromethyl)isonicotinamide] | 0.054
18 | CN(C)C(=O)CN(C(=O)c1cc(C(F)(F)F)cc(C(F)(F)F)c1)c1cnccc1-c1ccccc1Cl [Example 118, N-[4-(2-Chloro-phenyl)-pyridin-3-yl]-N-dimethylcarbamoylmethyl-3,5-bis-trifluoromethyl-benzamide] | 2.47
19 | COc1cc(F)c(F)cc1-c1ccncc1N(CC(N)=O)C(=O)c1cc(C(F)(F)F)cc(S(C)(=O)=O)c1 [Example 193, N-(2-Amino-2-oxoethyl)-N-(4-(4,5-difluoro-2-methoxyphenyl)pyridin-3-yl)-3-(methylsulfonyl)-5-(trifluoromethyl)benzamide] | 0.456
20 | COc1cc(F)ccc1-c1ccncc1N(CC(F)(F)F)C(=O)c1cc(F)cc(C(F)(F)F)c1 [Example 134, 3-Fluoro-N-[4-(4-fluoro-2-methoxy-phenyl)-pyridin-3-yl]-N-(2,2,2-trifluoro-ethyl)-5-trifluoromethyl-benzamide] | 0.912
21 | COCCN(C(=O)c1cc(C(F)(F)F)cc(C(F)(F)F)c1)c1cnccc1-c1ccccc1Cl [Example 89, N-[4-(2-Chloro-phenyl)-pyridin-3-yl]-N-(2-methoxy-ethyl)-3,5-bis-trifluoromethyl-benzamide] | 0.008
22 | COc1cc(F)ccc1-c1ccncc1N(C)C(=O)c1cc(C(F)(F)F)cc(S(=O)(=O)N2CCS(=O)(=O)CC2)c1 [Example 304, 3-(1,1-Dioxo-thiomorpholine-4-sulfonyl)-N-[4-(4-fluoro-2-methoxy-phenyl)-pyridin-3-yl]-N-methyl-5-trifluoromethyl-benzamide] | 0.015
23 | COc1nc(C)ccc1-c1ccncc1N(C)C(=O)c1cc(C(F)(F)F)cc(C(F)(F)F)c1 [Example 47, N-(2-Methoxy-6-methyl-[3,4′]bipyridinyl-3′-yl)-N-methyl-3,5-bis-trifluoromethyl-benzamide] | 0.068

Results, then the molecule that gave them:

Row | EC50 [µM] | SMILES
24 | 1.92 | Cc1cc(C)nc(C(=O)N(C)c2cnccc2-c2ccccc2C)c1 [Example 121, 4,6-Dimethyl-pyridine-2-carboxylic acid methyl-(4-o-tolyl-pyridin-3-yl)-amide]
25 | 0.395 | COc1cc(-c2ccccc2C)c(N(C)C(=O)c2cc(C(F)(F)F)cc(C(F)(F)F)c2)cn1 [Example 14, N-(6-Methoxy-4-o-tolyl-pyridin-3-yl)-N-methyl-3,5-bis-trifluoromethyl-benzamide]
26 | 2.43 | Cc1cc(Cl)cc(C(=O)N(C)c2cnccc2-c2ccccc2C)n1 [Example 122, 4-Chloro-6-methyl-pyridine-2-carboxylic acid methyl-(4-o-tolyl-pyridin-3-yl)-amide]
27 | 0.256 | CN(C(=O)c1cc(C(F)(F)F)cc(C(F)(F)F)c1)c1cnccc1-c1cccc(Cl)c1F [Example 111, N-[4-(3-Chloro-2-fluoro-phenyl)-pyridin-3-yl]-N-methyl-3,5-bis-trifluoromethyl-benzamide]
28 | 0.593 | Cc1cc(F)ccc1-c1cc(Cl)ncc1N(C)C(=O)c1cc(C(F)(F)F)cc(C(F)(F)F)c1 [Example 72, N-[6-Chloro-4-(4-fluoro-2-methyl-phenyl)-pyridin-3-yl]-N-methyl-3,5-bis-trifluoromethyl-benzamide]
29 | 0.102 | CN(C(=O)c1cc(C(F)(F)F)cc(C(F)(F)F)c1)c1cnccc1-c1cccc(F)c1Cl [Example 65, N-[4-(2-Chloro-3-fluoro-phenyl)-pyridin-3-yl]-N-methyl-3,5-bis-trifluoromethyl-benzamide]
30 | 0.075 | Cc1cc(-c2ccccc2C)c(N(C)C(=O)c2cc(C(F)(F)F)cc(C(F)(F)F)c2)cn1 [Example 127, N-Methyl-N-(6-methyl-4-o-tolyl-pyridin-3-yl)-3,5-bis-trifluoromethyl-benzamide]
31 | 0.029 | Cc1ccccc1-c1ccncc1N(CC#N)C(=O)c1cc(C(F)(F)F)cc(C(F)(F)F)c1 [Example 161, N-Cyanomethyl-N-(4-o-tolyl-pyridin-3-yl)-3,5-bis-trifluoromethyl-benzamide]
32 | 0.152 | Cc1ccccc1-c1ccncc1N(C)C(=O)c1ccc(C)c(C(F)(F)F)c1 [Example 91, 4,N-Dimethyl-N-(4-o-tolyl-pyridin-3-yl)-3-trifluoromethyl-benzamide]
33 | 1.05 | COc1ccc(-c2ccncc2N(C)C(=O)c2cc(C(F)(F)F)cc(C(F)(F)F)c2)c(C)c1 [Example 27, N-[4-(4-Methoxy-2-methyl-phenyl)-pyridin-3-yl]-N-methyl-3,5-bis-trifluoromethyl-benzamide]
34 | 0.58 | Cc1ccccc1-c1cc(Cl)ncc1N(C)C(=O)c1cc(Cl)cc(Cl)c1 [Example 13, 3,5-Dichloro-N-(6-chloro-4-o-tolyl-pyridin-3-yl)-N-methyl-benzamide]
